# Measured values published in US20260144258A1, “CRYSTAL OF 2-(5-CYCLOPROPYL-3-(ETHYLSULFONYL)PYRIDIN-2-YL)-5-((TRIFLUOROMETHYL)SULFONYL)BENZO[D]OXAZOLE” (SUMITOMO CHEMICAL COMPANY, LIMITED, priority 2022, published 2026).
# What was measured:
# Format in all cases: in vivo
# [1] = system: Argentine ant (Linepithema humile); experiment: Test method 7: treated filter paper with sugar water, Argentine ant workers; settings: 12.5 ppm, 0.7 ml on filter paper, after 6 days, 25° C.
# Procedure: (§1) Next, an efficacy of the Type 1 crystal of Compound (1) on controlling harmful arthropods is shown by Test examples. The following tests were conducted at 25° C.
# (§2) Test compound is made to a formulation according to a similar method to that described in the Formulation example 1, and thereto is added 1.8 g of sucrose, followed by adding 3% sugar water to prepare a dilution containing a prescribed concentration of the test compound.
# (§3) A filter paper having a diameter of 5.5 cm is spread on the bottom of the cup, and then 0.7 ml of the dilutons are added dropwise to the filter paper, and ten (10) Argentine ant (Linepithema humile) workers are released into the cup, and the cup is covered with the lid. After 6 days, the number of the dead and distressed individuals of Argentine ant workers are counted, and the ratio of distressed and dead insects (%) is calculated by the following equation.
# (§4) Here the dead individual is one whose behavior has completely stopped, and a distressed individual is one that cannot stand up when placed on its back and also cannot walk.
# [2] = system: German cockroach (Blattella germanica); experiment: Test method 8: treated filter paper with sugar water, German cockroach male adults; settings: 0.8 ppm, 0.7 ml on filter paper, after 5 days, 25° C.
# Procedure: as §1, §2
# as §3, with “dilutions” for “dilutons”, “five (5) German cockroach (Blattella germanica) male adults” for “ten (10) Argentine ant (Linepithema humile) workers”, “5” for “6”, “German cockroach male adults” for “Argentine ant workers”
# as §4
# [3] = system: cotton aphids (Aphis gossypii); experiment: Test method 1: foliar spray on cucumber seedling infested with cotton aphids; settings: 500 ppm, spray 10 mL/seedling on cucumber, cotton aphids all stages, after 5 days, 25° C.
# Procedure: Next, an efficacy of the Type 1 crystal of Compound (1) on controlling harmful arthropods is shown by Test examples. The following tests were conducted at 25° C. Test compound is made to a formulation according to a similar method to that described in the Formulation example 1, and thereto is added water containing 0.03 v/v % of Shindain (registered trademark) to prepare a dilution containing a prescribed concentration of the test compound. Cucumber (Cucumis sativus) seedling (on the developmental stage of the second true leaf) is planted in a cup, and approximately 30 cotton aphids (Aphis gossypii) (all stages of life) are released onto the seedling. After one day, the dilutions are sprayed onto the seedling at a ratio of 10 mL/seedling. After 5 days, the number of the surviving insects is examined, and the controlling value is calculated by the following equation. […]
# [4] = system: common cutworms (Spodoptera litura); experiment: Test method 2: sprayed cabbage leaf, common cutworm larvae; settings: 120 h, spray 20 mL/seedling on cabbage, second instar larvae, after 5 days, 25° C., read-out: mortality of insects
# Procedure: as §1
# (§5) Test compound is made to a formulation according to a similar method to that described in the Formulation example 1, and thereto is added water containing 0.03 v/v % of Shindain (registered trademark) to prepare a dilution containing a prescribed concentration of the test compound.
# (§6) Cabbage (Brassicae oleracea) seedling (on the developmental stage of the second to third true leaf) is planted in a cup, and the dilutions are sprayed onto the seedling at a ratio of 20 mL/seedling. Thereafter, the stem and leaf thereof are cut out and then are placed into a cup that is lined with filter paper. Five (5) commom cutworms (Spodoptera litura) at the second instar larval stage are released into the cup. After 5 days, the number of the surviving insects is counted, and the mortality of insects is calculated by the following equation.
# Mortality (%)=(1−Number of surviving insects/5)×100
# [5] = system: diamondback moths (Plutella xylostella); experiment: Test method 3: sprayed cabbage leaf, diamondback moth larvae; settings: 120 h, spray 20 mL/seedling on cabbage, second instar larvae, after 5 days, 25° C., read-out: mortality of insects
# Procedure: as §1, §5
# as §6, with “with a” for “with”, “diamondback moths (Plutella xylostella)” for “commom cutworms (Spodoptera litura)”
# [6] = system: common house mosquitos (Culex pipiens pallens); experiment: Test method 4: mosquito larvae released into dilution; settings: 24 h, last instar larvae in dilution, after 1 day, 25° C., read-out: mortality of insects
# Procedure: as §1
# Test compound is made to a formulation according to a similar method to that described in the Formulation example 1, and thereto is added water to prepare a dilution containing a prescribed concentration of the test compound.
# Into the dilution, 30 common house mosquitos (Culex pipiens pallens) at the last instar larval stage are released, and after 1 day, the state of the common house mosquito larvae is examined, and the mortality of insects is calculated by the following equation.
# Mortality (%)=(Number of dead insects/Number of tested insects)×100
# [7] = system: brown planthoppers (Nilaparvata lugens); experiment: Test method 5: sprayed rice seedling, brown planthopper larvae; settings: 144 h, spray 10 mL/seedling on rice, third instar larvae, after 6 days, 25° C., read-out: mortality of insects
# Procedure: as §1, §5
# Rice (Oryza sativa) seedling (on the developmental stage of the second leaf) is planted in a cup, and the dilutions are sprayed onto the seedling at a ratio of 10 mL/seedling. Thereafter, twenty (20) brown planthoppers (Nilaparvata lugens) at the third instar larval stage are released into the cup. After 6 days, the number of the surviving insects is counted, and the mortality of insects is calculated by the following equation.
# Mortality (%)=(1−Number of surviving insects/20)×100
# [8] = system: cotton aphids (Aphis gossypii); experiment: Test method 6: sprayed cucumber seedling with artificial rainfall, cotton aphids; settings: 1 ppm, spray 10 mL/seedling on cucumber, artificial rainfall 10 mm/hr for 1 hour, female adults released after one day, after 5 days, 25° C.
# Procedure: Next, an efficacy of the Type 1 crystal of Compound (1) on controlling harmful arthropods is shown by Test examples. The following tests were conducted at 25° C. Test compound is made to a formulation according to a similar method to that described in the Formulation example 1, and thereto is added water containing 0.02 v/v % of Shindain (registered trademark) to prepare a dilution containing a prescribed concentration of the test compound. Only the second true leaves of Cucumber (Cucumis sativus) seedling (on the developmental stage of the third true leaf) are retained, and the other leaves are cut off, and the dilutions are sprayed onto the seedling at a ratio of 10 mL/seedling. After the dilution, which is treated, is dried, rain is given to the cucumber seedling with an artificial rainfall device at 10 mm/hr for 1 hour. After one day, 10 cotton aphids (Aphis gossypii) female adults are released onto the seedling. After 5 days, the number of the surviving insects is examined and the controlling value is calculated by the following equation. […]
SMILES,ratio of distressed and dead insects [1],ratio of distressed and dead insects [2],controlling value [3],mortality at 500 ppm [4],mortality at 500 ppm [5],mortality at 3.5 ppm [6],mortality at 500 ppm [7],controlling value [8]
"CCS(=O)(=O)c1cc(C2CC2)cnc1-c1nc2cc(S(=O)(=O)C(F)(F)F)ccc2o1 [amorphous of Compound (1), 2-(5-cyclopropyl-3-(ethylsulfonyl)pyridin-2-yl)-5-((trifluoromethyl)sulfonyl)benzo[d]oxazole]",35%,30%,,,,,,
"CCS(=O)(=O)c1cc(C2CC2)cnc1-c1nc2cc(S(=O)(=O)C(F)(F)F)ccc2o1 [Type 1 crystal of Compound (1), 2-(5-cyclopropyl-3-(ethylsulfonyl)pyridin-2-yl)-5-((trifluoromethyl)sulfonyl)benzo[d]oxazole]",100%,100%,≥ 90%,≥ 80%,≥ 80%,≥ 90%,≥ 90%,40.5%
